Among the test systems are UO-31; U-251; HCT-116; SNB-75; OVCAR-4; UACC-62; NCI-H522; A498; MDA-N; TK-10; SNB-19; DU-145; NCI-H23; UACC-257; OVCAR-8; SK-MEL-28; HCT-15; HOP-92; OVCAR-5.
Common to all, as to test: NCI-60 cell line screen, 48 h

This is an account of results in ChEMBL document CHEMBL1201862, “PubChem BioAssay data set” (2004).

Molecules are shown by their SMILES.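 Where inhibition never reached the appropriate level, the endpoint shown equals the highest concentration tested. Otherwise, values were interpolated linearly from a five-concentration, 48-hour dose response in 96-well plates. Abbreviation: GI50, concentration required for 50% inhibition of growth.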 Calls of active or inactive are those of the source. No stated cut-off is given here; in the data, active = GI50 up to about 1.1 µM and inactive = higher.

With `O=C(NCCCN(CCCCN(CCCNC(=O)c1cc(S(=O)(=O)O)cc(O)c1O)C(=O)c1cc(S(=O)(=O)O)cc(O)c1O)C(=O)c1cc(S(=O)(=O)O)cc(O)c1O)c1cc(S(=O)(=O)O)cc(O)c1O`, the GI50 in the assay with UO-31, in the assay with U-251, in the assay with HCT-116, in the assay with SNB-75, in the assay with OVCAR-4 and in the assay with UACC-62 was > 100 µM (inactive) each time. For the same compound, the GI50 in the assay with NCI-H522, with A498, in the assay with MDA-N, in the assay on TK-10, with SNB-19 and in the assay with DU-145 was > 100 µM (inactive) throughout. Further, the GI50 with NCI-H23 is > 100 µM (inactive); with UACC-257, > 100 µM (inactive); in the assay on OVCAR-8, > 100 µM (inactive); in the assay with SK-MEL-28 it was > 100 µM (inactive); in the assay with HCT-15, greater than 100 µM; in the assay on HOP-92, > 100 µM (inactive).

`Cc1ccc(S(=O)(=O)NC(=O)NC(Cc2ccc(O)c(O)c2)C(=O)O)cc1` (configuration not stated): the GI50 with UO-31, in the assay with U-251, in the assay on HCT-116, in the assay on OVCAR-4, in the assay with UACC-62 and with NCI-H522 was > 100 µM (inactive) in each case. Also, the GI50 in the assay with A498, with MDA-N, in the assay on TK-10, in the assay on SNB-19, in the assay on DU-145 and in the assay with NCI-H23 was > 100 µM (inactive) in each case. Moreover, the GI50 in the assay with UACC-257 was > 100 µM (inactive); in the assay on OVCAR-8, 81.8 µM (inactive); in the assay on SK-MEL-28, > 100 µM (inactive); in the assay on HCT-15, greater than 100 µM; in the assay with OVCAR-5, > 100 µM (inactive); in the assay on HOP-92 it was 80.5 µM (inactive).

On to `Cc1ccc(-c2cc(N)n(-c3nc4c(c(=O)n(C)c(=O)n4C)n3C)n2)cc1`, for which the GI50 with UO-31 is > 100 µM (inactive); with U-251 it was > 100 µM (inactive); in the assay on HCT-116, > 100 µM (inactive); with OVCAR-4, 42.5 µM (inactive); in the assay with UACC-62, > 100 µM (inactive); with NCI-H522, 86.5 µM (inactive). The GI50 with A498 is > 100 µM (inactive); in the assay on MDA-N, > 100 µM (inactive); in the assay with TK-10, > 100 µM (inactive); in the assay with SNB-19, 94.4 µM (inactive); in the assay with DU-145, > 100 µM (inactive); in the assay on NCI-H23 it was 67 µM (inactive). The GI50 in the assay with UACC-257 is > 100 µM (inactive); in the assay with OVCAR-8, > 100 µM (inactive); in the assay with SK-MEL-28, 23.1 µM (inactive); in the assay on HCT-15, greater than 100 µM; in the assay with OVCAR-5, > 100 µM (inactive); in the assay with HOP-92, > 100 µM (inactive).

Turning to `O=C(ON=C1c2ccccc2C(Br)C(Br)c2ccccc21)c1cc([N+](=O)[O-])cc([N+](=O)[O-])c1` (configuration not stated), the GI50 in the assay on U-251 was 15.8 µM (inactive); in the assay with HCT-116, 18.5 µM (inactive); in the assay on SNB-75, 13.9 µM (inactive); with OVCAR-4 it was 22.2 µM (inactive); with UACC-62 it was 18.7 µM (inactive); in the assay with NCI-H522, 5.3 µM (inactive). Further, the GI50 in the assay on A498 is 17.6 µM (inactive); in the assay with MDA-N, 22.1 µM (inactive); in the assay with TK-10, 23.2 µM (inactive); in the assay with SNB-19 it was 24.1 µM (inactive); in the assay on DU-145, 25.9 µM (inactive); in the assay on NCI-H23 it was 20.3 µM (inactive). The GI50 in the assay with UACC-257 was 18 µM (inactive); in the assay on OVCAR-8, 17.3 µM (inactive); in the assay on SK-MEL-28, 18.9 µM (inactive); in the assay with HCT-15 it was 20.5 µM; in the assay with OVCAR-5 it was 22.4 µM (inactive); in the assay on HOP-92 it was 16 µM (inactive).

For the compound `C/C=C/C(CC(O)(C(F)(F)F)C(F)(F)F)=N/NC(N)=S`, the GI50 with U-251, in the assay with HCT-116, in the assay on SNB-75, with OVCAR-4, in the assay with UACC-62 and in the assay on NCI-H522 was > 10 µM (inactive) in each case. Besides, the GI50 in the assay on A498, in the assay on MDA-N, with TK-10, in the assay on SNB-19, with DU-145 and with NCI-H23 was > 10 µM (inactive) in each case. The GI50 is > 10 µM (inactive) in the assay with UACC-257; > 10 µM (inactive) in the assay with OVCAR-8; > 10 µM (inactive) in the assay on SK-MEL-28; greater than 10 µM with HCT-15; > 10 µM (inactive) in the assay on OVCAR-5; > 10 µM (inactive) in the assay with HOP-92.

In the case of `c1csc(-c2ccc(-c3ccc(-c4cccs4)s3)s2)c1`, the GI50 with UO-31, in the assay with U-251, with HCT-116, in the assay with SNB-75, with OVCAR-4 and in the assay with UACC-62 was > 100 µM (inactive) in each case. In addition, the GI50 with NCI-H522, with A498, in the assay with MDA-N, in the assay with TK-10, in the assay on SNB-19 and with DU-145 was > 100 µM (inactive) each time. For the same compound, the GI50 is > 100 µM (inactive) in the assay on NCI-H23; > 100 µM (inactive) in the assay with UACC-257; > 100 µM (inactive) in the assay with OVCAR-8; > 100 µM (inactive) in the assay with SK-MEL-28; greater than 100 µM in the assay on HCT-15; > 100 µM (inactive) with OVCAR-5.

For the compound `CC(C)=CCN1CC(C)C(=O)Nc2cc(Cl)ccc21` (configuration not stated), the GI50 is 28.6 µM (inactive) in the assay with UO-31; 27.4 µM (inactive) with U-251; 16.2 µM (inactive) in the assay on HCT-116; 25.6 µM (inactive) in the assay with OVCAR-4; 17.3 µM (inactive) in the assay on NCI-H522; 33.3 µM (inactive) in the assay on A498. Besides, the GI50 is 26 µM (inactive) in the assay on MDA-N; 19.3 µM (inactive) in the assay on TK-10; 28.5 µM (inactive) with SNB-19; 30 µM (inactive) in the assay on DU-145; 21.6 µM (inactive) with NCI-H23; 13.3 µM (inactive) with UACC-257. The GI50 with OVCAR-8 is 29.7 µM (inactive); in the assay on SK-MEL-28, 43.3 µM (inactive); in the assay with HCT-15 it was 29.9 µM; in the assay with OVCAR-5, 34 µM (inactive); in the assay with HOP-92 it was 10.8 µM (inactive).

Consider `CN/C(=N\n1cnnc1)OC`, for which the GI50 with UO-31, with U-251, in the assay on HCT-116, in the assay on OVCAR-4, in the assay on UACC-62 and in the assay with NCI-H522 was > 100 µM (inactive) throughout. The GI50 with A498, in the assay with MDA-N, in the assay on SNB-19, in the assay on DU-145, in the assay with NCI-H23 and in the assay with UACC-257 was > 100 µM (inactive) each time. The GI50 in the assay on OVCAR-8 was > 100 µM (inactive); in the assay with SK-MEL-28 it was > 100 µM (inactive); in the assay with HCT-15 it was greater than 100 µM; in the assay with OVCAR-5, > 100 µM (inactive); in the assay on HOP-92 it was > 100 µM (inactive).
